In ChEMBL document CHEMBL3132856, “Novel pyrazolo[1,5-a]pyridines as PI3K inhibitors: variation of the central linker group” (Medchemcomm, 2014):

Assays:
[1] = target: T1, Phosphatidylinositol 4,5-bisphosphate 3-kinase catalytic subunit delta isoform (Homo sapiens, UniProt O00329); assay: Inhibition of PI3Kdelta (unknown origin)
T1 sequence (O00329 whole entry): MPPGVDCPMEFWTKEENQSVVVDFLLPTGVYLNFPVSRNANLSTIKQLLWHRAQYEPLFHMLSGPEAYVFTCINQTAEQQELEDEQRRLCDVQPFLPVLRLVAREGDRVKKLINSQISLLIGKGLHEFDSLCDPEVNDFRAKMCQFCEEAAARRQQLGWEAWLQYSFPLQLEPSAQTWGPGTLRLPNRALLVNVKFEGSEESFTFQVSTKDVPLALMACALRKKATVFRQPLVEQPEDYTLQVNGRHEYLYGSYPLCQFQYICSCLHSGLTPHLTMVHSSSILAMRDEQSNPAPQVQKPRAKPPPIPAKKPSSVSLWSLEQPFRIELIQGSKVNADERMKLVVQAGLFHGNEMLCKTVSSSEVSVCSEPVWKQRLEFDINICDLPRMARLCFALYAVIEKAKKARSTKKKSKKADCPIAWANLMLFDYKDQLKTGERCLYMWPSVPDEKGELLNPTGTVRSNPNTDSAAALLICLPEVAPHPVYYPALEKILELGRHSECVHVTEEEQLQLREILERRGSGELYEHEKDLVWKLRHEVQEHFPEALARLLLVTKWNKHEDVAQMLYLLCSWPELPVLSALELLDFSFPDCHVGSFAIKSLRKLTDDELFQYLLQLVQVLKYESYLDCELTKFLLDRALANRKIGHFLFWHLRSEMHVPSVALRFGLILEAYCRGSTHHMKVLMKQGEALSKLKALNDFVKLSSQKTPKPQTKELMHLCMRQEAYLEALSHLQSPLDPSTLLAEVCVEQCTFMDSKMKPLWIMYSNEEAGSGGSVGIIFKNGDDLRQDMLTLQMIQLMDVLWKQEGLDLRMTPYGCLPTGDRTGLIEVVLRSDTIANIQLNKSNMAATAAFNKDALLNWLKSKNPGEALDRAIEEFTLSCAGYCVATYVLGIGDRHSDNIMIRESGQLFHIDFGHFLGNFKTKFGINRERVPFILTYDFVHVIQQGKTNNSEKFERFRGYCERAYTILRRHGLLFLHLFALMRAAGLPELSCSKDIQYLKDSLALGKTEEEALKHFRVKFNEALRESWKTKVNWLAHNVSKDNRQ

[2] = target: Phosphatidylinositol 4,5-bisphosphate 3-kinase catalytic subunit beta isoform (Homo sapiens, UniProt P42338); assay: Inhibition of PI3Kbeta (unknown origin)
[3] = target: Phosphatidylinositol 4,5-bisphosphate 3-kinase catalytic subunit alpha isoform (Homo sapiens, UniProt P42336); assay: Inhibition of PI3Kalpha (unknown origin)
Homo sapiens [4] = species: Homo sapiens; assay: Selectivity ratio of IC50 for PI3Kbeta (unknown origin) to IC50 for PI3Kalpha (unknown origin)
Homo sapiens [5] = species: Homo sapiens; assay: Selectivity ratio of IC50 for PI3Kalpha (unknown origin) to IC50 for PI3Kdelta (unknown origin)
Homo sapiens [6] = species: Homo sapiens; assay: Selectivity ratio of IC50 for PI3Kdelta (unknown origin) to IC50 for PI3Kalpha (unknown origin)

Chain of Phosphatidylinositol 4,5-bisphosphate 3-kinase catalytic subunit beta isoform (P42338 whole entry, canonical isoform): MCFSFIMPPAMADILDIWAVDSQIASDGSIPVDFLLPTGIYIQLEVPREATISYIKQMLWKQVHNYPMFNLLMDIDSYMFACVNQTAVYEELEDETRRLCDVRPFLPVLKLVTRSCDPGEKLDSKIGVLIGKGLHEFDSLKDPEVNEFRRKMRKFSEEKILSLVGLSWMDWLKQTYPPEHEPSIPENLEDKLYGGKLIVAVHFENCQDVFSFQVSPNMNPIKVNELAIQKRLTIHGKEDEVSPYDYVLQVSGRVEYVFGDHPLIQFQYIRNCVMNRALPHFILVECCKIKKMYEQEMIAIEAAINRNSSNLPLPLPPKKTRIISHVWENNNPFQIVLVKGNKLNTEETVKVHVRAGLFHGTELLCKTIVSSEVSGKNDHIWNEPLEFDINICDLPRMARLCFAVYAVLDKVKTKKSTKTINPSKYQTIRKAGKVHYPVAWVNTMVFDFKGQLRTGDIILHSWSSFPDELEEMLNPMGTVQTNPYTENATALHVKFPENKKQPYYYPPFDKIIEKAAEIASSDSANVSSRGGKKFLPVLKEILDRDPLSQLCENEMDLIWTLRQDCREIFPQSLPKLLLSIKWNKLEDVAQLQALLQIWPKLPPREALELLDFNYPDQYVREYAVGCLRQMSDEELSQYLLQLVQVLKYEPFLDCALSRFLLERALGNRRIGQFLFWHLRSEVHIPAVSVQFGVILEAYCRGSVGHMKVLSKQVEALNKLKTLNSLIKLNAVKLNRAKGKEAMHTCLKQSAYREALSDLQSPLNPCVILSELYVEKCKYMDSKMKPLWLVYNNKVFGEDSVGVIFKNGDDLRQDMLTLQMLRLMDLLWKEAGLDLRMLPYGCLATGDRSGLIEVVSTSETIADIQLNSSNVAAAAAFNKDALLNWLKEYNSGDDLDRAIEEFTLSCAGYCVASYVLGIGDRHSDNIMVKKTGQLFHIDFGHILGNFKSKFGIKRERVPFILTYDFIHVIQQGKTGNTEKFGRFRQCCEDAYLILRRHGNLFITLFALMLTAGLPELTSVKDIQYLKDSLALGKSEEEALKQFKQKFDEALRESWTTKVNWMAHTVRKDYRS
Chain of Phosphatidylinositol 4,5-bisphosphate 3-kinase catalytic subunit alpha isoform (P42336 whole entry, canonical isoform): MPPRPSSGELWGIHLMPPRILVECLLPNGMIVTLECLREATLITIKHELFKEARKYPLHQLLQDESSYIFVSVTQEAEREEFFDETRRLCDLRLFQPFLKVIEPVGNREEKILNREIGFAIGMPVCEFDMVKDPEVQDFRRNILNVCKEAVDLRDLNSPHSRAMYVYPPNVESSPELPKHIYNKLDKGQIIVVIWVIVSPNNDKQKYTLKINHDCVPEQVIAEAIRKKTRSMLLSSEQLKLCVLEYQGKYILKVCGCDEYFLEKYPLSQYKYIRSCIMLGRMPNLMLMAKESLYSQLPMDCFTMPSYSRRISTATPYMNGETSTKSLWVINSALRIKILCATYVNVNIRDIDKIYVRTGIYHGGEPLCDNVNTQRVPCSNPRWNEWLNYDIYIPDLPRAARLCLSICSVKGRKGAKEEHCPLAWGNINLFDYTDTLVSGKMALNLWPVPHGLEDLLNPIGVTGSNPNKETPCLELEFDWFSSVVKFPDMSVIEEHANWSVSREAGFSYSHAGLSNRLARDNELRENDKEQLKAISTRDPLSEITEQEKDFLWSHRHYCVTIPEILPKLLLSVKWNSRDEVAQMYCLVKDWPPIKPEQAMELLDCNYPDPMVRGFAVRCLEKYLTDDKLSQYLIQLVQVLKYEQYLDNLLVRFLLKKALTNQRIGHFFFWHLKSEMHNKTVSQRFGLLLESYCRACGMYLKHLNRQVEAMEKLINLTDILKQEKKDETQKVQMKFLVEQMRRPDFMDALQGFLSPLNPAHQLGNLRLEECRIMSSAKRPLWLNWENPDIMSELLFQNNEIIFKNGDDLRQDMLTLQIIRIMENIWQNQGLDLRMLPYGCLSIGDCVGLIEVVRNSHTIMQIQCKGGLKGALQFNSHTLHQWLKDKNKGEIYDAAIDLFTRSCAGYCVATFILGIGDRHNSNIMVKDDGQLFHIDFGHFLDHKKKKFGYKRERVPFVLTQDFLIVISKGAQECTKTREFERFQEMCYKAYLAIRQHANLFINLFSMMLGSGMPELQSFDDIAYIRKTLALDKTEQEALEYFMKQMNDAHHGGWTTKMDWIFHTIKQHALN

Compound	IC50 [1] [nM]	IC50 [2] [nM]	IC50 [3] [nM]	Ratio IC50 (Homo sapiens [4])	Ratio IC50 (Homo sapiens [5])	Ratio IC50 (Homo sapiens [6])
Cc1ccc([N+](=O)[O-])cc1S(=O)(=O)N(C)c1nc(-c2cnn3ccc(Br)cc23)cs1	1550	> 1000	> 1000			
Cc1ccc([N+](=O)[O-])cc1S(=O)(=O)Cc1nc(-c2cnn3ccc(Br)cc23)cs1	90	140	240			
N#Cc1ccc(F)c([S+]([O-])c2nc(-c3cnn4ccc(Br)cc34)cs2)c1 (centres undefined)	200	> 1000	300			
O=[N+]([O-])c1cccc([S+]([O-])c2nc(-c3cnn4ccc(Br)cc34)cs2)c1 (centres undefined)	320	4420	740	< 10		
CN(C)CCN(C)c1ccc(C#N)cc1S(=O)(=O)c1nc(-c2cnn3ccc(Br)cc23)cs1	2000	3560	370			
Cc1ccc([N+](=O)[O-])cc1Nc1nc(-c2cnn3ccc(Br)cc23)cs1	> 1000	> 1000	> 1000			
Cc1ccc([N+](=O)[O-])cc1CS(=O)(=O)c1nc(-c2cnn3ccc(Br)cc23)cs1	> 1000	> 1000	> 1000			
Cc1ccc([N+](=O)[O-])cc1Cc1nc(-c2cnn3ccc(Br)cc23)cs1	> 1000	> 1000	> 1000			
Cc1ccc([N+](=O)[O-])cc1S(=O)(=O)/N=c1/scc(-c2cnn3ccc(Br)cc23)n1C	> 1000	> 1000	> 1000			
N#Cc1cc(S(=O)(=O)c2nc(-c3cnn4ccc(Br)cc34)cs2)ccc1F	150	> 1000	170			
N#Cc1cc(S(=O)(=O)c2nc(-c3cnn4ccc(Br)cc34)cs2)ccc1NCCN1CCOCC1	240	> 1000	2130		9	
Cc1ccc([N+](=O)[O-])cc1CSc1nc(-c2cnn3ccc(Br)cc23)cs1	> 1000	> 1000	> 1000			
O=[N+]([O-])c1cccc(Sc2nc(-c3cnn4ccc(Br)cc34)cs2)c1	> 1000	> 1000	> 1000			
CN(C)CCN(C)c1ccc(C#N)cc1[S+]([O-])c1nc(-c2cnn3ccc(Br)cc23)cs1 (centres undefined)	250	4340	4030		16	5
CN(C)CCN(C)c1ccc(S(=O)(=O)c2nc(-c3cnn4ccc(Br)cc34)cs2)cc1C#N	640	> 1000	2470		4	
Cc1ccccc1[S+]([O-])c1nc(-c2cnn3ccc(Br)cc23)cs1 (centres undefined)	> 1000	> 1000	1280			
O=[N+]([O-])c1cccc(S(=O)(=O)c2nc(-c3cnn4ccc(Br)cc34)cs2)c1			630	< 10		
Cc1ccc([N+](=O)[O-])cc1-c1nc(-c2cnn3ccc(Br)cc23)cs1	> 1000	> 1000	> 1000			
N#Cc1ccc(F)c(S(=O)(=O)c2nc(-c3cnn4ccc(Br)cc34)cs2)c1	440	> 1000	720			

Other lines, results leading:

IC50 [1] [nM]	IC50 [2] [nM]	IC50 [3] [nM]	Ratio IC50 (Homo sapiens [4])	Ratio IC50 (Homo sapiens [5])	Ratio IC50 (Homo sapiens [6])	Compound
> 1000	> 1000	> 1000				Cc1ccc([N+](=O)[O-])cc1C(=O)N[C@H]1CCCN(Cc2cnn3ccc(C#N)cc23)C1
> 1000	> 1000	> 1000				Cc1ccc([N+](=O)[O-])cc1C(=O)N[C@H]1CCN(Cc2cnn3ccc(C#N)cc23)C1
> 1000	> 1000	> 1000				Cc1ccc([N+](=O)[O-])cc1C(=O)NC1CCN(Cc2cnn3ccc(C#N)cc23)CC1
> 1000	> 1000	> 1000				Cc1ccc([N+](=O)[O-])cc1S(=O)(=O)N[C@@H]1CCN(Cc2cnn3ccc(C#N)cc23)C1
> 1000	> 1000	590				Cc1ccc([N+](=O)[O-])cc1S(=O)(=O)N1CCCC(c2cnn3ccc(Br)cc23)C1 (centres undefined)
> 1000	> 1000	> 1000				Cc1ccc([N+](=O)[O-])cc1S(=O)(=O)NC1CCN(Cc2cnn3ccc(C#N)cc23)CC1
> 1000	> 1000	> 1000				Cc1ccc([N+](=O)[O-])cc1S(=O)(=O)N[C@@H]1CCCN(Cc2cnn3ccc(C#N)cc23)C1
> 1000	> 1000	> 1000				Cc1ccc([N+](=O)[O-])cc1S(=O)(=O)N[C@H]1CCN(Cc2cnn3ccc(C#N)cc23)C1
> 1000	> 1000	> 1000				Cc1ccc([N+](=O)[O-])cc1S(=O)(=O)NC1CN(Cc2cnn3ccc(C#N)cc23)C1
> 1000	> 1000	> 1000				Cc1ccc([N+](=O)[O-])cc1C(=O)N1CCN(Cc2cnn3ccc(C#N)cc23)CC1
> 1000	> 1000	> 1000				Cc1ccc([N+](=O)[O-])cc1S(=O)(=O)N1CCC(c2cnn3ccc(Br)cc23)CC1
> 1000	> 1000	3000				Cc1ccc([N+](=O)[O-])cc1S(=O)(=O)N1CCC(c2cnn3ccc(Br)cc23)C1 (centres undefined)
> 1000	> 1000	> 1000				Cc1ccc([N+](=O)[O-])cc1C(=O)NC1CN(Cc2cnn3ccc(C#N)cc23)C1
> 1000	> 1000	> 1000				Cc1ccc([N+](=O)[O-])cc1C(=O)N1CCC(c2cnn3ccc(Br)cc23)CC1
> 1000	> 1000	> 1000				Cc1ccc([N+](=O)[O-])cc1S(=O)(=O)N1CCN(Cc2cnn3ccc(C#N)cc23)CC1
> 1000	> 1000	> 1000				Cc1ccc([N+](=O)[O-])cc1C(=O)N[C@@H]1CCCN(Cc2cnn3ccc(C#N)cc23)C1
3350	> 1000	140				Cc1ccc([N+](=O)[O-])cc1S(=O)(=O)C/C=C/c1cnn2ccc(Br)cc12
> 1000	> 1000	> 1000				Cc1ccc([N+](=O)[O-])cc1C(=O)N[C@@H]1CCN(Cc2cnn3ccc(C#N)cc23)C1
> 1000	> 1000	> 1000				Cc1ccc([N+](=O)[O-])cc1S(=O)(=O)N[C@H]1CCCN(Cc2cnn3ccc(C#N)cc23)C1
> 1000	> 1000	1260				Cc1ccc([N+](=O)[O-])cc1S(=O)(=O)Nc1nc(-c2cnn3ccc(Br)cc23)cs1
> 1000	> 1000	> 1000				Cc1ccc([N+](=O)[O-])cc1S(=O)(=O)N1CCCN(Cc2cnn3ccc(C#N)cc23)CC1
